From patent publication US7820439B2, “In vitro generation of GABAergic neurons from pluripotent stem cells” (Reliance Life Sciences PVT Ltd., priority 2003, dated 2010)

Tested on: neuronal progenitor cells derived from murine ES cells
Test: Differentiation of neuronal progenitor cells into GABAergic neurons in differentiation media containing Ara-C
Format: cell-based
Experimental: The expanded neuronal progenitor cells were differentiated by culturing the cells in a differentiation media containing Neurobasal A medium (Gibco), FCS (10-20%) (HYCLONE), and B27 supplement (2-10%) (Gibco), but no β-FGF. Additionally, the differentiation media contained factors to enhance GABAergic neuron yield, preferably Ara-C (Sigma Chemical Co. USA). […] After 3 days of culture in the differentiation media containing Ara-C, the cells were grown in the same media without Ara-C for 8, 12, or 16 days. When the neuronal progenitor cells were cultured in differentiation media containing Ara-C for 3 days, and the cells were then grown in differentiation media without Ara-C for 16 days, at least about 60% of the neuronal progenitor cells differentiated into GABAergic neurons (FIG. 6).
The differentiated neuronal cell types generated according to the present disclosure were evaluated both by the overall morphology of the cells, as well as the phenotypes identified by immunoflourescence. […]
The cells were then incubated overnight at 4° C. with a primary antibody (antibody dilution was made in 1% BSA). […] The chamber slides were observed under fluorescence microscope to evaluate the immunopositive cells in the different stages of differentiation. […]

cytosine β-d-Arabino furanoside [Ara-C]
percentage of GABAergic neurons in the neuronal population derived from murine ES cells (Ara-C 20 ug/ml in differentiation media): increased the percentage of GABAergic neurons
neuronal progenitor cells differentiated into GABAergic neurons (differentiation media containing Ara-C for 3 days, then without Ara-C for 16 days (FIG. 6)): at least 60%
